Test: xn = mol fraction of the nth substance listed
Settings: 100 kPa

CCOCCO + CC[n+]1ccn(C)c1.F[B-](F)(F)F
speed of sound [m/s]
Settings	298.15 K	308.15 K	318.15 K	328.15 K
x1 = 0.0466	1614.9	1591.3	1568	1545.2
x1 = 0.0981	1607.6	1583.8	1560.2	1537.4
x1 = 0.1487	–	1575	1551.2	1528.2
x1 = 0.1973	1589.7	1565.3	–	1517.9
x1 = 0.3049	1564.7	1539.7	–	1490.7
x1 = 0.4112	1535	1509.2	1483.5	1458.2
x1 = 0.4953	1508.4	–	1455.3	1428.8
x1 = 0.5705	1482.4	1455	1427.6	–
x1 = 0.696	1435	1406	1376.9	1347.7
x1 = 0.7952	1394.4	1363.9	–	1302.7
x1 = 0.8411	1374.8	1343.6	1311.9	–
x1 = 0.8698	1362.4	–	1298.3	1267.2
x1 = 0.9487	1327.3	1294	1259.9	1228.2
x1 = 1	1304	1269.5	1234.1	1202.2

CC[n+]1ccn(C)c1.F[B-](F)(F)F + CCOCCO
x2 = 0
Settings	speed of sound [m/s]
298.15 K	1620.3
318.15 K	1573.8
328.15 K	1550.9
